Results reported in paper PMC8447900 (Chemical Science, 2021).

Tested on: hENT1
Assay type: cell-based, human
Settings: PK15-ENT1 cells

Compound	effect of AZD8055 on activity of isomer 1a (AZD8055 (5 μM) combined with isomer 1a)	effect of rapamycin on potency of isomer 1a (rapamycin (5 μM) combined with isomer 1a)
COc1ccc(-c2ccc3c(N4CCOC[C@@H]4C)nc(N4CCOC[C@@H]4C)nc3n2)cc1CO [AZD8055]	negligible effect on the activity of isomer 1a	
CO[C@H]1C[C@@H]2CC[C@@H](C)[C@@](O)(O2)C(=O)C(=O)N2CCCC[C@H]2C(=O)O[C@H]([C@H](C)C[C@@H]2CC[C@@H](O)[C@H](OC)C2)CC(=O)[C@H](C)/C=C(\C)[C@@H](O)[C@@H](OC)C(=O)[C@H](C)C[C@H](C)/C=C/C=C/C=C/1C [Rapamycin]		antagonizes isomer 1a inhibition of hENT1-mediated thymidine uptake
